This is an account of results in article PMC5682218 (European journal of medicinal chemistry, 2017).

One data set concerns the target HIV RT polymerase (pol) (Human immunodeficiency virus type 1 group M subtype B, UniProt P03366). Briefly: RT polymerase assay. It counts as biochemical, HIV-1.
The target of data set [1] is HIV RT-associated RNase H (Human immunodeficiency virus type 1 group M subtype B, UniProt P03366). Briefly: RNH assay: HIV RT-associated RNase H inhibition, HTS-1 RNA/DNA substrate. It counts as biochemical, HIV-1.
A further data set deals with HIV integrase (Human immunodeficiency virus type 1 group M subtype B, UniProt P03366). Nature of the data set: HIV IN assay. The format is biochemical.
A further data set concerns HIV-1. Nature of the data set: MAGI antiviral assay in P4R5 indicator cells. The format is cell-based. To be noted: Human immunodeficiency virus 1, read-out: MAGI Antiviral EC50.
Data set [2] is described as follows: Cytotoxicity in cell-based MAGI assay. To be noted: human, P4R5 indicator cells (MAGI assay).
Another data set has as its system P4R5 cells. Briefly: Cytotoxicity in cell-based MAGI assay. To be noted: human.
Setting [3] is: concentration inhibiting the target enzyme by 50%.
The mark [4] stands for this setting: read-out: RT IC50 Pol, concentration inhibiting the target enzyme by 50%.

Structures can show the parent of a compound that is named as a salt. Where two headings read alike, the source gives them in different places.

In general, IC50 refers to the concentration at which inhibition is half-maximal. `O=c1[nH]c2sc(Cc3ccccc3)cc2c(=O)n1O` [Compound 11b, 6-Benzyl-3-hydroxythieno[2,3-d]pyrimidine-2,4(1H,3H)-dione] yielded a concentration for half-maximal inhibition (IC50) against HIV RT polymerase (pol) greater than 10 µM.

By EC50 is commonly meant the concentration needed to bring the measured effect to its halfway point. The term CC50 denotes the concentration giving 50% cytotoxicity. Low values mean harm at low concentration, high ones better tolerance by the cells. On to `CCN1CCc2c(sc3[nH]c(=O)n(O)c(=O)c23)C1` [Compound 11k, 7-Ethyl-3-hydroxy-5,6,7,8-tetrahydropyrido[4′,3′:4,5]thieno[2,3-d]pyrimidine-2,4(1H,3H)-dione hydrochloride], for which the concentration for half-maximal inhibition (IC50) in data set [1] was 0.2 ± 0.03 µM; at HIV RT polymerase (pol), greater than 10 µM; against HIV integrase it was greater than 100 µM. In addition, in the data set on HIV-1, the EC50 is greater than 20 µM. The half-maximal cytotoxic concentration (CC50) at 72 h in data set [2] was greater than 100 µM.

On to `Cc1sc2[nH]c(=O)n(O)c(=O)c2c1C` [Compound 11g, 3-Hydroxy-5,6-dimethylthieno[2,3-d]pyrimidine-2,4(1H,3H)-dione], for which the IC50 in data set [1] was 0.1 ± 0.03 µM; against HIV RT polymerase (pol) it was greater than 10 µM.

As for `O=c1[nH]c2sc3c(c2c(=O)n1O)CCNC3` [Compound 11l, 3-Hydroxy-5,6,7,8-tetrahydropyrido[4′,3′:4,5]thieno[2,3-d]pyrimidine-2,4(1H,3H)-dione hydrobromide], the values for the concentration for half-maximal inhibition (IC50) (in data set [1]; against HIV RT polymerase (pol); against HIV integrase) were 0.3 ± 0.03 µM, greater than 10 µM and 17 ± 3 µM, respectively. In addition, the EC50 in the data set on HIV-1 was greater than 20 µM. Also, the CC50 at 72 h in data set [2] is greater than 100 µM.

For `O=c1[nH]c2scc(-c3ccccc3)c2c(=O)n1O` [Compound 11c, 3-Hydroxy-5-phenylthieno[2,3-d]pyrimidine-2,4(1H,3H)-dione], the IC50 in data set [1] was 0.1 ± 0.03 µM; on HIV RT polymerase (pol), greater than 10 µM.

Take `Cc1csc2[nH]c(=O)n(O)c(=O)c12` [Compound 11f, 3-Hydroxy-5-methylthieno[2,3-d]pyrimidine-2,4(1H,3H)-dione]: the values for the half-inhibitory concentration (IC50) (in data set [1]; on HIV RT polymerase (pol)) were 0.1 ± 0.02 µM and greater than 10 µM, respectively.

`O=c1[nH]c2cc(-c3ccccc3)ccc2c(=O)n1O` [Compound 9a, 3-Hydroxy-7-phenylquinazoline-2,4(1H,3H)-dione]: the “fold increase in RNase H inhibition” value in data set [1] (vs. compound 14) was determined as 6.5 fold. On HIV RT polymerase (pol), this compound returned an IC50 greater than 10 µM. In addition, the “fold decrease in INST inhibition” value at HIV integrase (vs. compound 14) worked out at 5.5 fold.

With `O=c1[nH]c2sc3c(c2c(=O)n1O)CCN(Cc1ccccc1)C3` [Compound 11m, 7-Benzyl-3-hydroxy-5,6,7,8-tetrahydropyrido[4′,3′:4,5]thieno[2,3-d]pyrimidine-2,4(1H,3H)-dione hydrochloride], the values for the IC50 (in data set [1]; against HIV RT polymerase (pol); on HIV integrase) were 0.1 ± 0.04 µM, greater than 10 µM and 8.3 ± 0.8 µM, respectively. For the same compound, in the data set on HIV-1, the 50% effective concentration (EC50) is greater than 20 µM. The compound further yielded a CC50 at 72 h in data set [2] greater than 100 µM.

Take `Cc1c(C(=O)O)sc2[nH]c(=O)n(O)c(=O)c12` [Compound 11h, 3-Hydroxy-5-methyl-2,4-dioxo-1,2,3,4-tetrahydrothieno[2,3-d]pyrimidine-6-carboxylic acid]: the 50% inhibitory concentration (IC50) in data set [1] is 0.1 ± 0.02 µM; against HIV RT polymerase (pol), greater than 10 µM.

As to `O=c1[nH]c2sc(-c3ccccc3)cc2c(=O)n1O` [Compound 11a, 3-Hydroxy-6-phenylthieno[2,3-d]pyrimidine-2,4(1H,3H)-dione], the IC50 against HIV RT polymerase (pol) was greater than 10 µM.

On HIV RT polymerase (pol), `O=c1[nH]c2cc(-c3ccc(F)cc3)sc2c(=O)n1O` [Compound 10b, 6-(4-Fluorophenyl)-3-hydroxythieno[3,2-d]pyrimidine-2,4(1H,3H)-dione] displayed an IC50 greater than 10 µM.

`O=C1Cc2cc(-c3ccccc3)ccc2C(=O)N1O` [Compound 14, 2-Hydroxy-6-phenylisoquinoline-1,3(2H,4H)-dione]: the IC50 at HIV RT polymerase (pol) was greater than 10 µM. For the same compound, the “RT IC50 Pol” value at HIV RT polymerase (pol) (setting [3]) is given as “without inhibiting RT pol”.

As to “3-Hydroxy-5,6,7,8-tetrahydrobenzo[4, 5]thieno[2,3-d]pyrimidine-2,4(1H,3H)-dione [Compound 11j]”, the half-inhibitory concentration (IC50) on HIV RT polymerase (pol) (setting [4]) was greater than 10 µM. Also, the CC50 in the data set on P4R5 cells is greater than 100 µM.

For the compound `O=c1[nH]c2cc(-c3ccccc3)sc2c(=O)n1O` [Compound 10a, 3-Hydroxy-6-phenylthieno [3,2-d]pyrimidine-2,4(1H,3H)-dione], the results for the IC50 (in data set [1]; at HIV RT polymerase (pol)) were 0.1 ± 0.06 µM and greater than 10 µM, respectively. Further, the “RT IC50 Pol” value at HIV RT polymerase (pol) (setting [3]) is “no RT pol inhibition”.

Regarding `O=c1[nH]c2scc(-c3ccc(Cl)cc3)c2c(=O)n1O` [Compound 11d, 5-(4-Chlorophenyl)-3-hydroxythieno[2,3-d]pyrimidine-2,4(1H,3H)-dione], the IC50 against HIV RT polymerase (pol) is greater than 10 µM. Also, the “RT IC50 Pol” value on HIV RT polymerase (pol) (setting [3]) is “did not inhibit RT polymerase”.

Compound `O=c1[nH]c2sccc2c(=O)n1O` [Compound 11e, 3-Hydroxythieno[2,3-d]pyrimidine-2,4(1H,3H)-dione] returned a half-inhibitory concentration (IC50) against HIV RT polymerase (pol) greater than 10 µM.

For the compound `O=c1[nH]c2cc(-c3ccc(Cl)cc3)sc2c(=O)n1O` [Compound 10c, 6-(4-Chlorophenyl)-3-hydroxythieno[3,2-d]pyrimidine-2,4(1H,3H)-dione], the half-maximal inhibitory concentration (IC50) against HIV RT polymerase (pol) was greater than 10 µM.

“3-Hydroxy-1,5,6,7-tetrahydro-2H-cyclopenta[4, 5]thieno[2,3-d]pyrimidine-2,4(3H)-dione [Compound 11i]”: the IC50 at HIV RT polymerase (pol) (setting [4]) was greater than 10 µM. The CC50 in the data set on P4R5 cells is greater than 100 µM.

For `O=c1[nH]c2cc(-c3ccc(Cl)cc3)ccc2c(=O)n1O` [Compound 9b, 7-(4-Chlorophenyl)-3-hydroxyquinazoline-2,4(1H,3H)-dione], the IC50 on HIV RT polymerase (pol) is greater than 10 µM.
